# Results published in PubChem BioAssay AID1963971 (Molecular Pharmacology Branch, DTP, NCI, 2024).
# Test system: 953936-095-R-J2-PDC spheroids with HUVEC/MSC, viability
# Assay: Anticancer human tumor 953936-095-R-J2-PDC patient-derived cervical squamous cell carcinoma cell line growth inhibition [PI3K]
# Conditions: for IC50: curve of first compound; for viability, T/C: stronger effect = lower value
# Text: Combinatorial screen of targeted agents with the PI3K inhibitors inavolisib, alpelisib, duvelisib, and copanlisib in multi-cell type tumor spheroids
# A high-throughput screen of multi-cell type tumor spheroids was designed to identify active combinations of targeted small molecules and PI3K pathway inhibitors. Complex spheroids include a stromal component modeled by human endothelial cells (HUVEC) and fibroblasts modeled by human mesenchymal stem cells (MSCs). The concentration ranges selected for each drug and investigational agent were based upon clinically achievable concentrations if the clinical Cmax of the agent was known.
# Compounds. The drugs and investigational agents: inavolisib (NSC800729), alpelisib (NSC765974), duvelisib (NSC772469), copanlisib (NSC816437), ipatasertib (NSC767898), afuresertib (NSC778305), talazoparib (NSC767125), sapanisertib (NSC764658), selumetinib (NSC741078), tovorafenib (DAY101, NSC766906), vemurafenib (NSC761431), ravoxertinib (NSC781343), sotorasib (NSC818433), MRTX1133 (NSC 836407), abemaciclib (NSC 768073), palbociclib (NSC758247), venetoclax (NSC 766270), SY5609 (NSC837396), enzalutamide (NSC755605), and darolutamide (NSC825331), were obtained from the National Cancer Institute (NCI) Developmental Therapeutics Program Chemical Repository. The FDA-approved anticancer drug set is available from the NCI Developmental Therapeutics Program. […] The stock solutions were prepared in dimethyl sulfoxide (DMSO, Sigma-Aldrich, St. Louis, MO, cat. D2650) at 800-fold the tested concentration and stored at -70 degrees C prior to their use. All drugs and investigational agents were tested over a range starting from a high concentration at or near the clinical Cmax and decreasing in half-log increments. If the clinical Cmax for an agent had not been determined, the highest concentration tested was 10 microM.
# Cell Culture. All cells were maintained in an incubator at 37 degrees C and 5% CO2 with 95% humidity. The PDC lines were cultured according to standard operating procedures established by the NCI PDMR (https://pdmr.cancer.gov/sops/default.htm). All PDCs were thawed and cultured in Matrigel-coated flasks prepared with a working solution of 1X Ham's F-12 nutrient mix, without supplementation (Invitrogen, Waltham, MA, cat. 11765054), 100 U/mL penicillin-streptomycin (Invitrogen, cat. 15140122), and 2.5% Matrigel (Corning Inc., Corning, NY, cat. 354248) for the first three passages. The 354836-022-R-J1-PDC, 475296-252-R-J1-PDC, and 997726-040-R-J2-PDC lines were cultured in 6A media, which includes advanced DMEM/F-12 (Thermo Fisher Scientific, cat. 12634028), 10 mM HEPES (Thermo Fisher Scientific, cat. 15630080), 1X GlutaMAX supplement (Thermo Fisher Scientific, cat. 35050061), 0.1 mg/mL primocin (InvivoGen, San Diego, CA, cat. ant-pm-2), 10% defined fetal bovine serum, heat inactivated (HyClone Laboratories Inc., Logan, UT, cat. SH30070.03HI), 50% L-WRN conditioned media (ATCC, cat. CRL-3276), 1.25 mM N-Acetyl-L-cysteine (Sigma-Aldrich, cat. A9165), 10 mM nicotinamide (Sigma-Aldrich, cat. N0636), 1X B-27 supplement (Thermo Fisher Scientific, cat. 17504044), 1X N-2 supplement (Thermo Fisher Scientific, cat. 17502048), and 10 microM Y-27632 dihydrochloride (Tocris Bioscience, Bristol, United Kingdom, cat. 1254). The 624824-186-R-J2-PDC line was cultured in 6C/Colon 1B media, which includes all 6A media components plus 50 ng/mL human EGF recombinant protein (Thermo Fisher Scientific, cat. PHG0311). […]
# [1] = second compound 0.00316 µM, first compound 0.0316 µM
# [2] = second compound 0.00316 µM, first compound 0.1 µM
# [3] = second compound 0.01 µM, first compound 0.0316 µM
# [4] = second compound 0.01 µM, first compound 0.1 µM
# [5] = second compound 0.0316 µM, first compound 0.0316 µM
# [6] = second compound 0.0316 µM, first compound 0.1 µM
# [7] = second compound 0.1 µM, first compound 0.0316 µM
# [8] = second compound 0.1 µM, first compound 0.1 µM
# [9] = second compound 0.316 µM, first compound 0.0316 µM
# [10] = second compound 0.316 µM, first compound 0.1 µM
# [11] = second compound 1 µM, first compound 0.0316 µM
# [12] = second compound 1 µM, first compound 0.1 µM
# [13] = second compound 0.00316 µM, first compound 0.316 µM
# [14] = second compound 0.00316 µM, first compound 1 µM
# [15] = second compound 0.00316 µM, first compound 3.16 µM
# [16] = second compound 0.00316 µM, first compound 10 µM
# [17] = second compound 0.01 µM, first compound 0.316 µM
# [18] = second compound 0.01 µM, first compound 1 µM
# [19] = second compound 0.01 µM, first compound 3.16 µM
# [20] = second compound 0.01 µM, first compound 10 µM
# [21] = second compound 0.0316 µM, first compound 0.316 µM
# [22] = second compound 0.0316 µM, first compound 1 µM
# [23] = second compound 0.0316 µM, first compound 3.16 µM
# [24] = second compound 0.0316 µM, first compound 10 µM
# [25] = second compound 0.1 µM, first compound 0.316 µM
# [26] = second compound 0.1 µM, first compound 1 µM
# [27] = second compound 0.1 µM, first compound 3.16 µM
# [28] = second compound 0.1 µM, first compound 10 µM
# [29] = second compound 0.316 µM, first compound 0.316 µM
# [30] = second compound 0.316 µM, first compound 1 µM
# [31] = second compound 0.316 µM, first compound 3.16 µM
# [32] = second compound 0.316 µM, first compound 10 µM
# [33] = second compound 1 µM, first compound 0.316 µM
# [34] = second compound 1 µM, first compound 1 µM
# [35] = second compound 1 µM, first compound 3.16 µM
# [36] = second compound 1 µM, first compound 10 µM
# 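Also: spheroids exposed to compounds for seven days before read-out.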
compound,measurement,setting,value
CC(=O)c1c(C)c2cnc(Nc3ccc(N4CCNCC4)cn3)nc2n(C2CCCC2)c1=O + CC(Nc1ccc2c(c1)OCCn1cc(N3C(=O)OCC3C(F)F)nc1-2)C(N)=O,IC50,second compound 0.00316 µM,> 0.1 µM
same,IC50,second compound 0.01 µM,> 0.1 µM
same,IC50,second compound 0.0316 µM,> 0.1 µM
same,IC50,second compound 0.1 µM,> 0.1 µM
same,IC50,second compound 0.316 µM,< 0.000316 µM
same,IC50,second compound 1 µM,< 0.000316 µM
same,"viability, T/C","second compound 0.00316 µM, first compound 0.000316 µM",89.4%
same,"viability, T/C","second compound 0.00316 µM, first compound 0.001 µM",93.1%
same,"viability, T/C","second compound 0.00316 µM, first compound 0.00316 µM",98%
same,"viability, T/C","second compound 0.00316 µM, first compound 0.01 µM",99.6%
same,"viability, T/C",[1],93.5%
same,"viability, T/C",[2],93.3%
same,"viability, T/C","second compound 0.01 µM, first compound 0.000316 µM",94.9%
same,"viability, T/C","second compound 0.01 µM, first compound 0.001 µM",87.5%
same,"viability, T/C","second compound 0.01 µM, first compound 0.00316 µM",88.9%
same,"viability, T/C","second compound 0.01 µM, first compound 0.01 µM",93.8%
same,"viability, T/C",[3],85.7%
same,"viability, T/C",[4],92%
same,"viability, T/C","second compound 0.0316 µM, first compound 0.000316 µM",76.3%
same,"viability, T/C","second compound 0.0316 µM, first compound 0.001 µM",74.9%
same,"viability, T/C","second compound 0.0316 µM, first compound 0.00316 µM",74.8%
same,"viability, T/C","second compound 0.0316 µM, first compound 0.01 µM",76.5%
same,"viability, T/C",[5],79.1%
same,"viability, T/C",[6],68.4%
same,"viability, T/C","second compound 0.1 µM, first compound 0.000316 µM",66.9%
same,"viability, T/C","second compound 0.1 µM, first compound 0.001 µM",59.6%
same,"viability, T/C","second compound 0.1 µM, first compound 0.00316 µM",58.6%
same,"viability, T/C","second compound 0.1 µM, first compound 0.01 µM",54.5%
same,"viability, T/C",[7],55.6%
same,"viability, T/C",[8],54.5%
same,"viability, T/C","second compound 0.316 µM, first compound 0.000316 µM",35.2%
same,"viability, T/C","second compound 0.316 µM, first compound 0.001 µM",34.6%
same,"viability, T/C","second compound 0.316 µM, first compound 0.00316 µM",35.6%
same,"viability, T/C","second compound 0.316 µM, first compound 0.01 µM",37.7%
same,"viability, T/C",[9],33.6%
same,"viability, T/C",[10],35.3%
same,"viability, T/C","second compound 1 µM, first compound 0.000316 µM",25%
same,"viability, T/C","second compound 1 µM, first compound 0.001 µM",22.6%
same,"viability, T/C","second compound 1 µM, first compound 0.00316 µM",21.7%
same,"viability, T/C","second compound 1 µM, first compound 0.01 µM",22%
same,"viability, T/C",[11],25.5%
same,"viability, T/C",[12],22.9%
CCCS(=O)(=O)Nc1ccc(F)c(C(=O)c2c[nH]c3ncc(-c4ccc(Cl)cc4)cc23)c1F + CC(Nc1ccc2c(c1)OCCn1cc(N3C(=O)OCC3C(F)F)nc1-2)C(N)=O,IC50,second compound 0.00316 µM,5.19 µM
same,IC50,second compound 0.01 µM,4.76 µM
same,IC50,second compound 0.0316 µM,4.77 µM
same,IC50,second compound 0.1 µM,3.26 µM
same,IC50,second compound 0.316 µM,< 0.0316 µM
same,IC50,second compound 1 µM,< 0.0316 µM
same,"viability, T/C",[1],93.9%
same,"viability, T/C",[2],101%
same,"viability, T/C",[13],104%
same,"viability, T/C",[14],111%
same,"viability, T/C",[15],87.3%
same,"viability, T/C",[16],0.81%
same,"viability, T/C",[3],91.7%
same,"viability, T/C",[4],94.8%
same,"viability, T/C",[17],96.4%
same,"viability, T/C",[18],98.7%
same,"viability, T/C",[19],77.1%
same,"viability, T/C",[20],0.48%
same,"viability, T/C",[5],82%
same,"viability, T/C",[6],78.7%
same,"viability, T/C",[21],78.7%
same,"viability, T/C",[22],81.9%
same,"viability, T/C",[23],75.6%
same,"viability, T/C",[24],3.87%
same,"viability, T/C",[7],56.3%
same,"viability, T/C",[8],58.7%
same,"viability, T/C",[25],59%
same,"viability, T/C",[26],56.1%
same,"viability, T/C",[27],51.5%
same,"viability, T/C",[28],0.85%
same,"viability, T/C",[9],34%
same,"viability, T/C",[10],34%
same,"viability, T/C",[29],35.5%
same,"viability, T/C",[30],35.8%
same,"viability, T/C",[31],27.4%
same,"viability, T/C",[32],0.86%
same,"viability, T/C",[11],21.7%
same,"viability, T/C",[12],23.6%
same,"viability, T/C",[33],23.1%
same,"viability, T/C",[34],26%
same,"viability, T/C",[35],17.9%
same,"viability, T/C",[36],0.87%
CNC(=O)c1ccc(N2C(=S)N(c3ccc(C#N)c(C(F)(F)F)c3)C(=O)C2(C)C)cc1F + CC(Nc1ccc2c(c1)OCCn1cc(N3C(=O)OCC3C(F)F)nc1-2)C(N)=O,IC50,second compound 0.00316 µM,> 10 µM
same,IC50,second compound 0.01 µM,> 10 µM
same,IC50,second compound 0.0316 µM,> 10 µM
same,IC50,second compound 0.1 µM,4.15 µM
same,IC50,second compound 0.316 µM,< 0.0316 µM
same,IC50,second compound 1 µM,< 0.0316 µM
same,"viability, T/C",[1],89.1%
same,"viability, T/C",[2],103%
same,"viability, T/C",[13],90.5%
same,"viability, T/C",[14],87.3%
same,"viability, T/C",[15],88.1%
same,"viability, T/C",[16],77.5%
same,"viability, T/C",[3],93.4%
same,"viability, T/C",[4],92.7%
same,"viability, T/C",[17],90.3%
same,"viability, T/C",[18],84.4%
same,"viability, T/C",[19],90.5%
same,"viability, T/C",[20],88.6%
same,"viability, T/C",[5],75.9%
same,"viability, T/C",[6],78.6%
same,"viability, T/C",[21],87%
same,"viability, T/C",[22],71%
same,"viability, T/C",[23],74.5%
same,"viability, T/C",[24],71.4%
same,"viability, T/C",[7],60.7%
same,"viability, T/C",[8],55.5%
same,"viability, T/C",[25],57.2%
same,"viability, T/C",[26],53.4%
same,"viability, T/C",[27],50.5%
same,"viability, T/C",[28],47.8%
same,"viability, T/C",[9],32.5%
same,"viability, T/C",[10],35.6%
same,"viability, T/C",[29],35.1%
same,"viability, T/C",[30],36.4%
same,"viability, T/C",[31],33.3%
same,"viability, T/C",[32],31.5%
same,"viability, T/C",[11],22.4%
same,"viability, T/C",[12],22.8%
same,"viability, T/C",[33],21.5%
same,"viability, T/C",[34],21.8%
same,"viability, T/C",[35],24.1%
same,"viability, T/C",[36],23%
